In patent publication US20130295036A1, “METHOD OF USING WOOD EXTRACTS IN COSMETIC AND HYGIENE PRODUCTS” (FLAVITPURE, INC., priority 2012, published 2013):
Blank lines part the entries; values can stand above or below the compound they belong to.

How the values were obtained:
COX-2 = biological target: T1, COX-2 (Homo sapiens, UniProt P35354); assay: COX-2 inhibition; format: biochemical
T1 sequence (P35354 18-604): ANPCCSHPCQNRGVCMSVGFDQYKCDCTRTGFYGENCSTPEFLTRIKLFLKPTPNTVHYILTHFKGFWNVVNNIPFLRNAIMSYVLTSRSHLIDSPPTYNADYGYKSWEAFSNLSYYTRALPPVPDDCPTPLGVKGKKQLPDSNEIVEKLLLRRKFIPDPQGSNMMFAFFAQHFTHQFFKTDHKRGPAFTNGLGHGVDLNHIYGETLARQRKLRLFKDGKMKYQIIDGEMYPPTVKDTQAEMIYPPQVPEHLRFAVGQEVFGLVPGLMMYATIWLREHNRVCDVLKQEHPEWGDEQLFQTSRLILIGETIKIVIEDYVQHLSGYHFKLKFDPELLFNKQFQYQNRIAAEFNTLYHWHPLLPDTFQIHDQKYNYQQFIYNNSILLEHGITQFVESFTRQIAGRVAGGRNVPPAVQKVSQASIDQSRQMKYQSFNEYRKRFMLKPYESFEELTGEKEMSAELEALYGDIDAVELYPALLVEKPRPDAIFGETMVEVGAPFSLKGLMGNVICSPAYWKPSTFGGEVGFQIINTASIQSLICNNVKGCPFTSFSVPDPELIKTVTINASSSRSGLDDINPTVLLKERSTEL
From the text: (§1) The body's early defense in response to trauma, inflammation or infection, the acute phase response (APR), is a complex set of systemic reactions seen shortly after exposure to a triggering event. The APR is induced by protein hormones called cytokines acting as messengers between the local site of injury and the hepatocytes synthesizing the acute phase proteins such as serum amyloid A. Most cytokines have multiple sources, targets and multiple functions. The pro-inflammatory cytokines can be divided into two major groups with respect to acute phase proteins inductions, the Interleukin-1 (IL-1) type (including Tumor Necrosis Factor-a, TNF-a) and the IL-6 type cytokines (including IL-6 cytokine). These cytokines are secreted primarily by monocytes activated by bacterial toxins or in response to local tissue injury.

[1] = tested on: 5-LOX mediated LT biosynthesis; assay: Leukotriene (LT) biosynthesis inhibition; format: biochemical
From the text: as §1

[2] = tested on: Antioxidant Response Element; conditions: cited from earlier work
serum and liver lipids = conditions: following exposure to toxic ionizing radiation; cited from earlier work
rats = conditions: high levels for long periods of time; cited from earlier work
lipid peroxidation = conditions: in vitro and ex vivo; cited from earlier work
[3] = tested on: dendritic cells of bone marrow and spleen; conditions: cited from earlier work

COX-2 inhibitory activity (COX-2): moderate
Structure (SMILES): CC(C)C1=CC2=C(CC1)[C@@]1(C)CCC[C@@](C)(C(=O)O)[C@@H]1CC2 [palustric acid]
LT biosynthesis inhibitory activity [1]: less pronounced

Structure (SMILES): O=C1c2c(O)cc(O)cc2O[C@H](c2ccc(O)c(O)c2)[C@H]1O [Dihydroquercetin (taxifolin), (2R,3R)-2-(3,4-dihydroxyphenyl)-3,5,7-trihydroxy-chroman-4-one]
activation of Antioxidant Response Element [2]: significantly activates
peroxidation of serum and liver lipids (serum and liver lipids): inhibited
toxic effects (rats): No toxic effects
inhibition of lipid peroxidation (lipid peroxidation): inhibits lipid peroxidation
production of cytokines, formation of ROS and NO, and change in intracellular Ca2+ levels [3]: significant inhibitory effect

Structure (SMILES): C=C[C@@]1(C)CC[C@H]2C(=CC[C@@H]3[C@]2(C)CCC[C@@]3(C)C(=O)O)C1 [Isopimaric acid]
LT biosynthesis inhibitory activity [1]: potent inhibitor

Structure (SMILES): CC(C)c1ccc2c(c1)CC[C@H]1[C@](C)(CO)CCC[C@]21C [dehydroabietinol]
LT biosynthesis inhibitory activity [1]: high LT formation inhibitory activity

Structure (SMILES): C=CC(C)(O)CCC1C(=C)CC(OC(C)=O)C2C(C)(C)CCCC12C (stereo not shown) [Larixyl acetate]
LT biosynthesis inhibitory activity [1]: highly active
